{"source": "patent US20250109127A1", "about": "“METHODS OF USE OF PHENOXYPROPYLAMINE COMPOUNDS TO TREAT DEPRESSION” (Minerva Neurosciences, Inc., priority 2013, published 2025)", "system": "5-HIAA release in the rat prefrontal cortex", "experiment": "Microdialysis: 5-HIAA release in prefrontal cortex after I.P. administration", "format": "in vivo", "conditions": "for 5-HIAA release, MEAN / 5-HIAA release, individual animals: 0.3 mg/kg I.P.; for 5-HIAA release, MEAN: n = 8; for 5-HIAA release, individual animals: one column per animal R#11,12,18,23,29,30,17,24, hydrochloride; for levels of 5-HIAA compared to the citalopram treated group (significant): SON-117 0.1 mg/kg", "procedure": "The aim of the study was to evaluate, using microdialysis, the effects of an intraperitoneal (I.P.) administration in rats of three different doses of SON-117 on dopamine and its metabolites, serotonin and its metabolite (5-HIAA), and norepinephrine levels in prefrontal cortex.\nThirty-two adult male Wistar rats were used for the whole study (4 groups of eight animals planned for the study, Table 1).\nSurgery was performed on rats weighing about 300 g at the beginning of the experiments. Rats were anaesthetized with Ketamine (50 mg/kg) & Xylazine (15 mg/kg) by intramuscular administration. The animals were placed in a stereotaxic apparatus in the flat-skull position at a constant setting of −3.3 mm between ear bars and the incisor bar. The animals were treated with a local anesthesic (xylocaine 1%, Astra Zeneca) and an analgesic (Temgesic, from Schering Plough, 0.05 mg/kg, s.c.). A rostrocaudal midline incision was made with a lancet to expose the dorsal skull surface. The “stereotaxic zero” was defined by the Bregma in accordance with Paxinos and Watson's atlas (1986). A hole was drilled in the skull with a drill and the meninges were pierced with a sterile needle to implant a CMA12 guide cannula which later received the dialysis probe.\nCoordinates used for implanting guide cannula in prefrontal cortex from Bregma were anteroposterior 3.7 mm, mediolateral 0.8 mm, and dorsoventral −2 mm (top of the probe was at −5 mm). The guide cannula was fixed to the skull with two stainless steel screws (1.88 mm outside diameter) anchored. An application of dental cement was added. A plastic collar allowed each animal to be tethered to a Swivel assembly of the CMA 120 awake animal system. Following surgery, rats were kept in individual cages and allowed to recover for a minimum of 3-5 days before the experimentation. The rats were handled and put in plastic bowl for 10 min at least every day to habituate the animals to their new environment for the dialysis. An I.P. administration with saline was also performed every day.\nDialysis probes (CMA12/3 mm, membrane, 20 kD cut-off, Carnegie Medicine, Stockholm, Sweden), were carefully washed before inserting into the guide cannula. The wash was performed with the artificial cerebrospinal fluid (aCSF) medium (NaCl 147 mM, KCl 2.7 mM, CaCl2 1.2 mM, MgCl2 0.85 mM) at room temperature. The dialysis system was then equilibrated at 20° C. at a perfusion rate of 1 μl/min with a Carnegie pump (CMA100). All catheters (FEP tubing, internal volume of 1.2 μl/10 cm, and tubing adaptors) used for microdialysis were treated in the same conditions.\nThe probes duly prepared were inserted into the guide cannula and the CMA120 Swivel assembly secured to the animal using a plastic collar. Flow through the dialysis probe with aCSF was maintained at a rate of 1 μl/min during the whole experimentation. The first four fractions (corresponding to 2 hours) were discarded to avoid the effects of parenchymal disturbance and to ensure that an approximate steady-state level was reached. Fractions were then collected over a period of 8.5 h during which time the animals remained quiet. The dialysates were automatically collected with an autosampler (microfraction collector CMA 140, Carnegie Medicin) and stored at −80° C. until analysis. […] Perfusion was then maintained for 7 hours with aCSF. The dialysates (30 μl) were collected into 300 μl vials, transferred into dry ice and then kept frozen (−80° C.) until analysis. Frozen samples were shipped to a partner for analysis. At the end of the microdialysis study, a PBS with colored ink was perfused through the probe in order to visualize the dialyzed area.\nCatecholamine assay: Concentrations of dopamine, DOPAC, HVA, 5-HIAA, 5-HT, and norepinephrin were determined for each sample by HPLC coupled with electrochemical detection.", "note": "Values joined by “and” are separate entries in the source; they are usually repeats but may differ in a detail not shown here. Equal entries are not always repeated. Structures can show the parent of a compound that is named as a salt.", "data": [{"compound": "Cc1nnc(-c2cc3c(OC[C@@H](O)CN4CCC(c5ccc(Cl)c(Cl)c5)CC4)cccc3o2)o1", "note": "[SON-117, (S)-1-(4-(3,4-dichlorophenyl)piperidino)-3-(2-(5-methyl-1,3,4-oxadiazol-2-yl)benzo(b)furan-4-yloxy)-2-propanol hydrochloride]", "values": [{"measurement": "5-HIAA release, MEAN", "setting": "T3 h 30-T4 h", "value": "86.84 % of respective basal"}, {"measurement": "5-HIAA release, individual animals", "setting": "T3 h 30-T4 h", "value": "84.27 % of respective basal and 78.82 % of respective basal and 113.26 % of respective basal and 50.70 % of respective basal and 79.10 % of respective basal and 97.98 % of respective basal and 103.77 % of respective basal"}, {"measurement": "5-HIAA release, MEAN", "setting": "T3 h-T3 h 30", "value": "85.23 % of respective basal"}, {"measurement": "5-HIAA release, individual animals", "setting": "T3 h-T3 h 30", "value": "91.97 % of respective basal and 87.81 % of respective basal and 101.16 % of respective basal and 49.70 % of respective basal and 76.51 % of respective basal and 101.56 % of respective basal and 87.92 % of respective basal"}, {"measurement": "5-HIAA release, MEAN", "setting": "T4 h 30-T5 h", "value": "79.56 % of respective basal"}, {"measurement": "5-HIAA release, individual animals", "setting": "T4 h 30-T5 h", "value": "106.09 % of respective basal and 92.34 % of respective basal and 55.38 % of respective basal and 93.00 % of respective basal and 34.98 % of respective basal and 60.78 % of respective basal and 97.49 % of respective basal and 96.40 % of respective basal"}, {"measurement": "5-HIAA release, MEAN", "setting": "T4 h-T4 h 30", "value": "83.02 % of respective basal"}, {"measurement": "5-HIAA release, individual animals", "setting": "T4 h-T4 h 30", "value": "101.39 % of respective basal and 87.58 % of respective basal and 68.33 % of respective basal and 105.89 % of respective basal and 46.22 % of respective basal and 58.28 % of respective basal and 100.16 % of respective basal and 96.30 % of respective basal"}, {"measurement": "5-HIAA release, MEAN", "setting": "T5 h 30-T6 h", "value": "76.13 % of respective basal"}, {"measurement": "5-HIAA release, individual animals", "setting": "T5 h 30-T6 h", "value": "99.18 % of respective basal and 83.12 % of respective basal and 47.00 % of respective basal and 91.59 % of respective basal and 31.98 % of respective basal and 58.90 % of respective basal and 95.96 % of respective basal and 101.31 % of respective basal"}, {"measurement": "5-HIAA release, MEAN", "setting": "T5 h-T5 h 30", "value": "70.00 % of respective basal"}, {"measurement": "5-HIAA release, individual animals", "setting": "T5 h-T5 h 30", "value": "36.17 % of respective basal and 102.81 % of respective basal and 51.02 % of respective basal and 88.56 % of respective basal and 33.58 % of respective basal and 69.56 % of respective basal and 91.58 % of respective basal and 86.71 % of respective basal"}, {"measurement": "5-HIAA release, MEAN", "setting": "T6 h 30-T7 h", "value": "77.53 % of respective basal"}, {"measurement": "5-HIAA release, individual animals", "setting": "T6 h 30-T7 h", "value": "93.10 % of respective basal and 92.17 % of respective basal and 48.56 % of respective basal and 102.17 % of respective basal and 26.99 % of respective basal and 69.28 % of respective basal"}, {"measurement": "5-HIAA release, MEAN", "setting": "T6 h-T6 h 30", "value": "75.56 % of respective basal"}, {"measurement": "5-HIAA release, individual animals", "setting": "T6 h-T6 h 30", "value": "95.37 % of respective basal and 79.54 % of respective basal and 45.32 % of respective basal and 101.94 % of respective basal and 31.32 % of respective basal and 69.73 % of respective basal and 87.93 % of respective basal and 93.33 % of respective basal"}, {"measurement": "5-HIAA release, MEAN", "setting": "T-30 min-T0 (before administration)", "value": "101.34 % of respective basal"}, {"measurement": "5-HIAA release, MEAN", "setting": "T-1 h 30-T-1 h (before administration)", "value": "96.20 % of respective basal"}, {"measurement": "5-HIAA release, MEAN", "setting": "T-1 h-T-30 min (before administration)", "value": "102.47 % of respective basal"}, {"measurement": "5-HIAA dialysate levels vs mean pre-administration value", "setting": "SON-117 0.1 mg/kg I.P.", "value": "no statistically significant differences"}, {"measurement": "levels of 5-HIAA compared to the citalopram treated group (significant)", "setting": "at 0.5 h", "value": "lower"}, {"measurement": "levels of 5-HIAA compared to the citalopram treated group (significant)", "setting": "at 4.5 h, 5 h, 6.5 h", "value": "higher"}, {"measurement": "5-HIAA concentrations in prefrontal cortex, change", "setting": "SON-117 0.3 mg/kg IP, at 3.5 h and from 4.5 h to 7 h", "value": "significant and stable slight decrease"}, {"measurement": "5-HIAA, difference to the citalopram group", "setting": "SON-117 0.3 mg/kg, in function of time", "value": "no significant difference"}]}]}
